Consider 14 compounds from US5502035A, “N-terminus modified analogs of LHRH” (Tap Holdings Inc., priority 1994, dated 1996).

Each structure is given as a SMILES string. Non-standard residues stand in square brackets, D forms with d. Residues, ends and D or L forms follow the SMILES beside them. *: point of attachment. NMePhe(4-NO2) = CN[C@@H](Cc1ccc([N+](=O)[O-])cc1)C(=O)O; Shikimoyl = O=C(C1=C[C@@H](O)[C@@H](O)[C@H](O)C1)*; dPhe(4-Cl) = N[C@H](Cc1ccc(Cl)cc1)C(=O)O; d1Nal = N[C@H](Cc1cccc2ccccc12)C(=O)O; d2Nal = N[C@H](Cc1ccc2ccccc2c1)C(=O)O; d(hCit) = NC(=O)NCCCC[C@@H](N)C(=O)O; Lys(iPr) = CC(C)NCCCC[C@H](N)C(=O)O; NMeY = CN[C@@H](Cc1ccc(O)cc1)C(=O)O; Thiophene2carbonyl = O=C(c1cccs1)*; dCit = NC(=O)NCCC[C@@H](N)C(=O)O; hArg = N=C(N)NCCCC[C@H](N)C(=O)O; d3Pal = N[C@H](Cc1cccnc1)C(=O)O; Isonicotinoyl = O=C(c1ccncc1)*; Nicotinoyl = O=C(c1cccnc1)*; Picolinoyl = O=C(c1ccccn1)*; X2 = O=C1CC[C@@H](C(=O)*)O1; X1 = O=C([C@@H]1CCCO1)*; azaGly = NNC(=O)O; Sar = CNCC(=O)O

The target in the assay is T1, LHRH (Rattus norvegicus, UniProt P30969).
T1 construct: endogenous in cells; host or cells: rat pituitary cells (own knowledge of the cited Haviv 1989 method)
T1 sequence (P30969 1-327): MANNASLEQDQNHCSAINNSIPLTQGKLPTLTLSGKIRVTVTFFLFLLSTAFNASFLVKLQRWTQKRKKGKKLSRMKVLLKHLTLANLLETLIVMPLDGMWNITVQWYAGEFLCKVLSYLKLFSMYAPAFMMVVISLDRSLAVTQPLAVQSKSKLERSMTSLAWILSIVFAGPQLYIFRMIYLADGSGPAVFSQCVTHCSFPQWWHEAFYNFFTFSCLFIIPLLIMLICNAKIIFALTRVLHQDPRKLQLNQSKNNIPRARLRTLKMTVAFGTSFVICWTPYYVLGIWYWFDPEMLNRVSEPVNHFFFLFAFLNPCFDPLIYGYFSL
Nature of the assay: in vitro test for LHRH antagonist potency (pA2). The class given is cell-based. The settings on record: negative logarithm of the antagonist concentration required to shift the response curve produced by the agonist leuprolide to two-fold higher concentration. In outline:
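Antagonism read against the agonist leuprolide on rat LHRH receptor; value is pA2, the −log of antagonist concentration that doubles the agonist concentration needed for the same response.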
Turning to `CC(C)C[C@H](NC(=O)[C@@H](CCCCNC(=O)c1cccnc1)NC(=O)[C@H](Cc1ccc(O)cc1)N(C)C(=O)[C@H](CO)NC(=O)[C@@H](Cc1cccnc1)NC(=O)[C@@H](Cc1ccc(Cl)cc1)NC(=O)[C@@H](Cc1ccc2ccccc2c1)NC(=O)C1=C[C@@H](O)[C@@H](O)[C@H](O)C1)C(=O)N[C@@H](CCCCNC(C)C)C(=O)N1CCC[C@H]1C(=O)N[C@H](C)C(N)=O` [Example 71, N-Shikimyl-D2Nal-D4ClPhe-D3Pal-Ser-NMeTyr-DLys(Nic)-Leu-Lys(Isp)-Pro-DAlaNH2] (Shikimoyl-[d2Nal][dPhe(4-Cl)][d3Pal]S[NMeY][dK](Nicotinoyl)L[Lys(iPr)]P[dA]-NH2), the antagonist equilibrium constant (Kb) (as a rule, the equilibrium dissociation constant of an antagonist, usually derived from a functional assay) is 0.00708 nM.

For `CC(C)C[C@H](NC(=O)[C@@H](CCCCNC(=O)c1cccnc1)NC(=O)[C@H](Cc1ccc(O)cc1)N(C)C(=O)[C@H](CO)NC(=O)[C@@H](Cc1cccc2ccccc12)NC(=O)[C@@H](Cc1ccc(Cl)cc1)NC(=O)CN(C)C(=O)CNC(=O)c1cccnc1)C(=O)N[C@@H](CCCCNC(C)C)C(=O)N1CCC[C@H]1C(=O)N[C@H](C)C(N)=O` [Example 35a, Nic-Gly-Sar-D4ClPhe-D1Nal-Ser-NMeTyr-DLys(Nic)-Leu-Lys(Isp)-Pro-DAlaNH2] (Nicotinoyl-G[Sar][dPhe(4-Cl)][d1Nal]S[NMeY][dK](Nicotinoyl)L[Lys(iPr)]P[dA]-NH2), the antagonist dissociation constant (Kb) was 0.1 nM. For `CC(C)C[C@H](NC(=O)[C@@H](CCCCNC(=O)C1=C[C@@H](O)[C@@H](O)[C@H](O)C1)NC(=O)[C@H](Cc1ccc([N+](=O)[O-])cc1)N(C)C(=O)[C@H](CO)NC(=O)[C@@H](Cc1cccnc1)NC(=O)[C@@H](Cc1ccc(Cl)cc1)NC(=O)[C@@H](Cc1ccc2ccccc2c1)NC(=O)CNC(=O)c1cccnc1)C(=O)N[C@@H](CCCCNC(=N)N)C(=O)N1CCC[C@H]1C(=O)N[C@H](C)C(N)=O` [Example 26b, N-Nicotinyl-Gly-D2Nal-D4ClPhe-D3Pal-Ser-NMePhe(NO2)-DLys(Shik)-Leu-Harg-Pro-DAlaNH2] (Nicotinoyl-G[d2Nal][dPhe(4-Cl)][d3Pal]S[NMePhe(4-NO2)][dK](Shikimoyl)L[hArg]P[dA]-NH2), the Kb was 0.0437 nM. Under `CC(C)C[C@H](NC(=O)[C@@H](CCCCNC(=O)C1=C[C@@H](O)[C@@H](O)[C@H](O)C1)NC(=O)[C@H](Cc1ccc(O)cc1)N(C)C(=O)[C@H](CO)NC(=O)[C@@H](Cc1cccnc1)NC(=O)[C@@H](Cc1ccc(Cl)cc1)NC(=O)[C@@H](Cc1ccc2ccccc2c1)NC(=O)[C@@H](CO)NC(=O)c1cccnc1)C(=O)N[C@@H](CCCNC(=N)N)C(=O)N1CCC[C@H]1C(=O)N[C@H](C)C(N)=O` [Example 14e, N-Nicotinyl-DSer-D2Nal-D4ClPhe-D3Pal-Ser-NMeTyr-DLys(Shik)-Leu-Arg-Pro-DAlaNH2] (Nicotinoyl-[dS][d2Nal][dPhe(4-Cl)][d3Pal]S[NMeY][dK](Shikimoyl)LRP[dA]-NH2) stands 0.0195 nM. As to `CC(C)C[C@H](NC(=O)[C@@H](CCCNC(N)=O)NC(=O)[C@H](Cc1ccc(O)cc1)N(C)C(=O)[C@H](CO)NC(=O)[C@@H](Cc1cccnc1)NC(=O)[C@@H](Cc1ccc(Cl)cc1)NC(=O)[C@@H](Cc1ccc2ccccc2c1)NC(=O)[C@@H]1CCC(=O)O1)C(=O)N[C@@H](CCCNC(=N)N)C(=O)N1CCC[C@H]1C(=O)N[C@H](C)C(N)=O` [Example 78b, N-(S)-5-Oxo-tetrahydrofur-2-oyl-D2Nal-D4ClPhe-D3Pal-Ser-NMeTyr-DCit-Leu-Arg-Pro-DAlaNH2] (X2-[d2Nal][dPhe(4-Cl)][d3Pal]S[NMeY][dCit]LRP[dA]-NH2), the Kb is 0.00832 nM.

On to `CC(C)C[C@H](NC(=O)[C@@H](CCCCNC(=O)c1cccnc1)NC(=O)[C@@H](Cc1ccc(O)cc1)N(C)C(=O)[C@H](CO)NC(=O)[C@@H](Cc1cccnc1)NC(=O)[C@@H](Cc1ccc(Cl)cc1)NC(=O)[C@@H](Cc1ccc2ccccc2c1)NC(=O)CNC(=O)[C@@H]1CCCO1)C(=O)N[C@@H](CCCCNC(C)C)C(=O)N1CCC[C@H]1C(=O)N[C@H](C)C(N)=O` [Example 90, N (S)-2-Tetrahydrofuroyl-Gly-D2Nal-D4ClPhe-D3pal-Ser-DNMeTyr-DLys(N-epsilon-Nicotinyl) -Leu-Lys(N-epsilon-Isopropyl)-pro-DAlaNH2], for which the Kb was 0.457 nM.

As for `CC(C)C[C@H](NC(=O)[C@@H](CCCCNC(=O)c1cccnc1)NC(=O)[C@H](Cc1ccc(O)cc1)N(C)C(=O)[C@H](CO)NC(=O)[C@@H](Cc1cccnc1)NC(=O)[C@@H](Cc1ccc(Cl)cc1)NC(=O)[C@@H](Cc1ccc2ccccc2c1)NC(=O)c1ccccn1)C(=O)N[C@@H](CCCCNC(C)C)C(=O)N1CCC[C@H]1C(=O)N[C@H](C)C(N)=O` [Example 72e, N-Picolinoyl-D2Nal-D4ClPhe-D3Pal-Ser-NMeTyr-DLys(Nic)-Leu-Lys(Isp)-Pro-DAlaNH2] (Picolinoyl-[d2Nal][dPhe(4-Cl)][d3Pal]S[NMeY][dK](Nicotinoyl)L[Lys(iPr)]P[dA]-NH2), the antagonist dissociation constant (Kb) is 0.0141 nM. Under `CC(C)C[C@H](NC(=O)[C@@H](CCCCNC(=O)c1cccnc1)NC(=O)[C@H](Cc1ccc(O)cc1)N(C)C(=O)[C@H](CO)NC(=O)[C@@H](Cc1cccc2ccccc12)NC(=O)[C@@H](Cc1ccc(Cl)cc1)NC(=O)NNC(=O)c1cccnc1)C(=O)N[C@@H](CCCCNC(C)C)C(=O)N1CCC[C@H]1C(=O)N[C@H](C)C(N)=O` [Example 33c, N-Nicotinyl-Azagly-D4ClPhe-D1Nal-Ser-NMeTyr-DLys(Nic)-Leu-Lys(Isp)-Pro-DAlaNH2] (Nicotinoyl-[azaGly][dPhe(4-Cl)][d1Nal]S[NMeY][dK](Nicotinoyl)L[Lys(iPr)]P[dA]-NH2) stands 0.00501 nM; under `CC(C)C[C@H](NC(=O)[C@@H](CCCCNC(=O)C1=C[C@@H](O)[C@@H](O)[C@H](O)C1)NC(=O)[C@H](Cc1ccc(O)cc1)N(C)C(=O)[C@H](CO)NC(=O)[C@@H](Cc1cccnc1)NC(=O)[C@@H](Cc1ccc(Cl)cc1)NC(=O)[C@@H](Cc1ccc2ccccc2c1)NC(=O)[C@@H](CCCCNC(=O)c1cccnc1)NC(=O)C1=C[C@@H](O)[C@@H](O)[C@H](O)C1)C(=O)N[C@@H](CCCNC(=N)N)C(=O)N1CCC[C@H]1C(=O)N[C@H](C)C(N)=O` [Example 14h, N-Shikimyl-DLys(Nic)-D2Nal-D4ClPhe-D3Pal-Ser-NMeTyr-DLys(Shik)-Leu-Arg-Pro-DAlaNH2] (Shikimoyl-[dK](Nicotinoyl)[d2Nal][dPhe(4-Cl)][d3Pal]S[NMeY][dK](Shikimoyl)LRP[dA]-NH2), 0.00417 nM. For `CC(C)C[C@H](NC(=O)[C@@H](CCCCNC(=O)c1cccnc1)NC(=O)[C@H](Cc1ccc(O)cc1)N(C)C(=O)[C@@H](CO)NC(=O)[C@@H](Cc1cccnc1)NC(=O)[C@@H](Cc1ccc(Cl)cc1)NC(=O)[C@@H](Cc1ccc2ccccc2c1)NC(=O)CNC(=O)[C@@H]1CCCO1)C(=O)N[C@@H](CCCCNC(C)C)C(=O)N1CCC[C@H]1C(=O)N[C@H](C)C(N)=O` [Example 82, N (S)-2-Tetrahydrofuroyl-Gly-D2Nal-D4ClPhe-D3Pal-DSer-NMeTyr-DLys(N-epsilon-Nicotinyl) -Leu-Lys(N-epsilon-Isopropyl)-Pro-DAlaNH2], the antagonist dissociation constant (Kb) was 1.12 nM. Under `CC(C)C[C@H](NC(=O)[C@@H](CCCCNC(N)=O)NC(=O)[C@H](Cc1ccc(O)cc1)NC(=O)[C@H](CO)NC(=O)[C@@H](Cc1cccnc1)NC(=O)[C@@H](Cc1ccc(Cl)cc1)NC(=O)[C@@H](Cc1ccc2ccccc2c1)NC(=O)CNC(=O)[C@@H]1CCCO1)C(=O)N[C@@H](CCCCNC(C)C)C(=O)N1CCC[C@H]1C(=O)N[C@H](C)C(N)=O` [Example 93, N (S)-2-Tetrahydrofuroyl-Gly-D2Nal-D4ClPhe-D3Pal-Ser-Tyr-DHcit-Leu-Lys(N-epsilon-Isopropyl)-Pro-DAlaNH2] (X1-G[d2Nal][dPhe(4-Cl)][d3Pal]SY[d(hCit)]L[Lys(iPr)]P[dA]-NH2) stands 0.00589 nM. For `CC(C)C[C@H](NC(=O)[C@@H](CCCCNC(=O)C1=C[C@@H](O)[C@@H](O)[C@H](O)C1)NC(=O)[C@H](Cc1ccc(O)cc1)N(C)C(=O)[C@H](CO)NC(=O)[C@@H](Cc1cccnc1)NC(=O)[C@@H](Cc1ccc(Cl)cc1)NC(=O)[C@@H](Cc1ccc2ccccc2c1)NC(=O)CNC(=O)c1cccnc1)C(=O)N[C@@H](CCCNC(=N)N)C(=O)N1CCC[C@H]1C(=O)N[C@H](C)C(N)=O` [Example 14k, N-Nicotinyl-Gly-D2Nal-D4ClPhe-D3Pal-Ser-NMeTyr-DLys(Shik)-Leu-Arg-Pro-DAlaNH2] (Nicotinoyl-G[d2Nal][dPhe(4-Cl)][d3Pal]S[NMeY][dK](Shikimoyl)LRP[dA]-NH2), the Kb was 0.01 nM. Turning to `CC(C)C[C@H](NC(=O)[C@@H](CCCCNC(=O)c1cccnc1)NC(=O)[C@H](Cc1ccc(O)cc1)N(C)C(=O)[C@H](CO)NC(=O)[C@@H](Cc1cccnc1)NC(=O)[C@@H](Cc1ccc(Cl)cc1)NC(=O)[C@@H](Cc1ccc2ccccc2c1)NC(=O)c1cccs1)C(=O)N[C@@H](CCCCNC(C)C)C(=O)N1CCC[C@H]1C(=O)N[C@H](C)C(N)=O` [Example 72c, N-Thienyl-2-carbonyl-D2Nal-D4ClPhe-D3Pal-Ser-NMeTyr-DLys(Nic)-Leu-Lys(Isp)-Pro-DAlaNH2] (Thiophene2carbonyl-[d2Nal][dPhe(4-Cl)][d3Pal]S[NMeY][dK](Nicotinoyl)L[Lys(iPr)]P[dA]-NH2), the Kb was 0.02 nM. Regarding `CC(C)C[C@H](NC(=O)[C@@H](CCCNC(N)=O)NC(=O)[C@H](Cc1ccc(O)cc1)N(C)C(=O)[C@H](CO)NC(=O)[C@@H](Cc1cccnc1)NC(=O)[C@@H](Cc1ccc(Cl)cc1)NC(=O)[C@@H](Cc1ccc2ccccc2c1)NC(=O)c1ccncc1)C(=O)N[C@@H](CCCNC(=N)N)C(=O)N1CCC[C@H]1C(=O)N[C@H](C)C(N)=O` [Example 78e, N-Isonicotinyl-D2Nal-D4ClPhe-D3Pal-Ser-NMeTyr-DCit-Leu-Arg-Pro-DAlaNH2] (Isonicotinoyl-[d2Nal][dPhe(4-Cl)][d3Pal]S[NMeY][dCit]LRP[dA]-NH2), the Kb is 0.0162 nM.
